Where two headings read alike, the source gives them in different places. Bounds are passed on as bounds.

Consider twelve compounds from patent US20040059104A1, “Nucleotide mimics and their prodrugs” (priority 2002, published 2004).

In data set [1] the test system is Staphylococcus aureus. The data set can be described thus: Antimicrobial assay, minimal inhibitory concentration. In kind it is cell-based. The following applies: for MIC: Staphylococcus aureus, read-out: S. aureus MIC. Summed up:
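E. coli and S. aureus grown overnight at 37° C were first screened by disc diffusion on Nutrient Broth agar lawns. MIC was then read after overnight incubation at 37° C as the lowest compound concentration giving no increase in absorbance at 600 nm.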

In data set [2] the test system is Escherichia coli. The description is as above. The data set is classed as cell-based.
Data set [3] is described as follows: in vitro. The following applies: human.
Data set [4] deals with HIV-1RF. As to the kind of experiment: Anti-HIV-1 cytoprotection assay in CEM-SS cells. The data set is classed as cell-based. The following applies: CEM-SS cells infected with HIV-1RF, MOI approximately 0.01, 6 days, MTS; read-out: CEM-SS IC50 (Anti-HIV Screening). As to the method: (§1) ollowing paper: Structure-Activity and Cross-Resistance unodeficiency Virus Type 1-Specific ckheit, Jr. et al., Antimicrobial Agents and s were evaluated in CEM-SS cell cultures V-1RF at an MOI of approximately 0.01. At he soluble tetrazolium-based dye MTS viability and quantify compound toxicity of metabolically active cells to yield a soluble analysis of cell viability and compound
Efficacy Evaluation in CEM-SS Cells Anti-HIV-1 Cytoprotection Assay
Cell Preparation—CEM-SS cells were passaged in T-75 flasks prior to use in the antiviral assay. On the day preceding the assay, the cells were split 1:2 to assure they were in an exponential growth phase at the time of infection. Total cell and viability quantification was performed using a hemacytometer and trypan blue exclusion. Cell viability was greater than 95% for the cells to be utilized in the assay. The cells were resuspended at 5×10^4 cells/ml in tissue culture medium and added to the drug-containing microtiter plates in a volume of 50 μl.
Virus Preparation—The virus used for these tests was the lymphocytropic virus strain HIV-1RF. This virus was obtained from the NIH AIDS Research and Reference Reagent Program and was grown in CEM-SS cells for the production of stock virus pools. For each assay, a pre-titered aliquot of virus was removed from the freezer (−80° C.) and allowed to thaw slowly to room temperature in a biological safety cabinet. The virus was resuspended and diluted into tissue culture medium such that the amount of virus added to each well in a volume of 50 μl was the amount determined to give between 85 to 95% cell killing at 6 days post-infection.
(§2) At assay termination, the assay plates were stained with the soluble tetrazolium-based dye MTS (CellTiter Reagent Promega) to determine cell viability and quantify compound toxicity. MTS is metabolized by the mitochondrial enzymes of metabolically active cells to yield a soluble formazan product, allowing the rapid quantitative analysis of cell viability and compound cytotoxicity. […] At termination of the assay, 20 μL of MTS reagent was added per well. The microtiter plates were then incubated 4-6 hrs at 37° C. for the HIV cytoprotection assay; the incubation intervals were chosen based on empirically determined times for optimal dye reduction. Adhesive plate sealers were used in place of the lids, the sealed plate was inverted several times to mix the soluble formazan product and the plate was read spectrophotometrically at 490 nm with a Molecular Devices Vmax plate reader.

Data set [5] relates to CEM-SS cells. As to the kind of experiment: Compound toxicity in CEM-SS cells (MTS staining). The data set is classed as cell-based. The following applies: read-out: CEM-SS TC50. The procedure: as §1, §2
Data set [6] concerns CCRF-CEM cells. As to the kind of experiment: Mammalian cell growth inhibition assay (MTT cytotoxicity). The data set is classed as cell-based, Human. As to the method:
(§3) The assays employed for determining the cytotoxicity of the nucleotide mimics of the present invention to mammalian cells are described below.
(§4) Human CCRF-CEM cells were obtained from American Tissue Culture Collection (ATCC) and grown according to ATCC specifications. […] CEM cells were grown at 37° C. in a 95% humidified environment and 5% CO2 atmosphere.
(§5) MTT is water soluble tetrazolin salt that is converted to an insoluble purple formazan by active mitochondrial dehydrogenases of living cells. […] Conversion of MTT into the insoluble formazan by non-treated control or treated cells was monitored at 540 nm.
(§6) CCRF-CEM cells (3×10^4) were plated in 96-well plates in RPMI media. The next day, cells were incubated with different concentrations (0-200 μM) of the nucleotide mimics of the present invention for 72 hr. Following treatment, MTT (2 mg/ml in PBS) dye was added to each well so that the final concentration was 0.5 mg/ml and then incubated for 4 hr at 37° C. Media and MTT dye were removed without disturbing the cells and 100% DMSO was added to dissolve the precipitate. After a 10 minute incubation at room temperature, the optical density values were measured at 540 nm, using the Spectra Max Plus plate reader. Survival was expressed as the percentage of viable cells in treated samples relative to non-treated control cells.

Experiment in data set [7]: as above
The data set is classed as cell-based, Human. The following applies: human; CCRF-CEM cells, 72 hr, MTT; read-out: Cytotoxicity IC50 (antiproliferative effect). As to the method:
as §3, §4, §5, §6

Data set [8] addresses purified bovine brain tubulin. The data set can be described thus: Assay for inhibition of microtubule (tubulin) polymerization. In kind it is biochemical. The following applies: 50 μM GTP, 37° C.; read-out: Ki, Inhibition of Tubulin Polymerization by Nucleotide Mimics. As to the method:
The assays employed to measure the polymerization and stability of tubulin microtubule protein are described below. The effectiveness of the compounds of the present invention as modulators of tubulin microtubule protein dynamics was measured in the following assays.
This assay was used to measure the ability of the nucleotide mimics of the present invention to inhibit the polymerization of tubulin subunits and subsequent assembly of microtubule protein. This assay is a modification of a published procedure (Xu et al., “Interaction of Tubulin with Guanosine 5′-O-(1-Thiotriphosphate) Diastereoisomers: Specificity of the α-Phosphate Binding Region”, Biochemistry 1994, 33, 11884-90).
The compounds were tested at various concentrations up to 500 μM final concentration. Polymerization assays were performed in 96-well microplates (Costar), in assay buffer containing GTP and tubulin. The nucleotide mimics of the present invention were diluted in buffer and pipetted into the plate wells. Samples were kept on ice until the reactions were initiated by moving the plates into a 37° C. incubator. The polymerization reaction was allowed to proceed at 37° C. for 30 minutes, monitored at 340 nm using a microplate spectrophotometer with a temperature-controlled incubator (Molecular Devices, Sunnyvale, Calif.). Initial velocity data (mA min^−1) was collected and fit to the equations below.
The percentage of inhibition was calculated according to the following equation:
% Inhibition=[1−(mA min^−1 in test reaction−mA min^−1 in blank)/(mA min^−1 in control reaction−mA min^−1 in blank)]×100.
Each inhibitor was titrated over an appropriate range of concentrations, and inhibition constants were determined using the following equations:
v=Vm[S]/(Km(1+[I]/Ki)+[S])

For data set [9], the target named is HIV reverse transcriptase (RT) (Human immunodeficiency virus type 1 group M subtype B, UniProt P04585). The following applies: assays using homopolymer templates; background statement; cited from earlier work.
Data set [10] has as its target Ribonucleotide Reductase (RNR R1/R2) (Escherichia coli, UniProt P00452). As to the kind of experiment: Ribonucleotide Reductase inhibition assay (coupled NADPH oxidation). The data set is classed as biochemical. As to the method:
The assays employed to measure inhibition of Ribonucleotide Reductase (RNR) activity are described below. The effectiveness of the compounds of the present invention as inhibitors of RNR enzyme was determined using the following assays.
This assay was used to measure the ability of the nucleotide mimics of the present invention to inhibit the enzymatic reaction catalyzed by RNR enzyme. In the reduction of cytidine 5′-diphosphate (CDP) to 2′-deoxycytidine 5′-diphosphate (dCDP), stoichiometric amounts of oxidized thioredoxin are formed. This protein is reduced by NADPH in a reaction catalyzed by thioredoxin reductase. By coupling the two reactions, RNR activity was measured by spectrophotometric determination of NADPH oxidation at 340 nm using a UV/VIS spectrophotometer. […]
The standard RNR assay is performed in a 96-well plate (Corning). […] The oxidation of NADPH was monitored at 340 nm on a microplate spectrophotometer (Molecular Devices Corp, Sunnyvale, Calif.). […]
The percentage of inhibition was calculated according to the following equation: […]
Each inhibitor was titrated over an appropriate range of concentrations, and IC50 values were determined using the equation: […]

A short description of data set [11]: in vitro. The following applies: bovine, serum, Half-Life, Serum Half-Lives of Gemcitibine Diphosphate Mimics and Their Prodrugs.
Setting [12] is: overnight at 37° C., tested 0-200 μg/ml, NA = Not active.
The mark [13] stands for this setting: value in brackets beside the μg/ml value.

Sequence of Ribonucleotide Reductase (RNR R1/R2) (P69924 2-376): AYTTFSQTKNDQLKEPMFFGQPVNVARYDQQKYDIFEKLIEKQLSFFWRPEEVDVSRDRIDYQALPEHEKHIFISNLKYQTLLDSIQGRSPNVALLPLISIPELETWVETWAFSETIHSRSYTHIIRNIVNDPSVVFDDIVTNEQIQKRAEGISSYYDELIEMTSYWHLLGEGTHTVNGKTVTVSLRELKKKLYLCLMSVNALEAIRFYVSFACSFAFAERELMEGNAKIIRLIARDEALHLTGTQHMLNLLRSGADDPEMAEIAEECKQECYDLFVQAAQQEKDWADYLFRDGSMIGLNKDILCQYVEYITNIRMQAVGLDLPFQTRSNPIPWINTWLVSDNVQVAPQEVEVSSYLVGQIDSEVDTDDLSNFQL
Sequence of Ribonucleotide Reductase (RNR R1/R2) (P00452 whole entry): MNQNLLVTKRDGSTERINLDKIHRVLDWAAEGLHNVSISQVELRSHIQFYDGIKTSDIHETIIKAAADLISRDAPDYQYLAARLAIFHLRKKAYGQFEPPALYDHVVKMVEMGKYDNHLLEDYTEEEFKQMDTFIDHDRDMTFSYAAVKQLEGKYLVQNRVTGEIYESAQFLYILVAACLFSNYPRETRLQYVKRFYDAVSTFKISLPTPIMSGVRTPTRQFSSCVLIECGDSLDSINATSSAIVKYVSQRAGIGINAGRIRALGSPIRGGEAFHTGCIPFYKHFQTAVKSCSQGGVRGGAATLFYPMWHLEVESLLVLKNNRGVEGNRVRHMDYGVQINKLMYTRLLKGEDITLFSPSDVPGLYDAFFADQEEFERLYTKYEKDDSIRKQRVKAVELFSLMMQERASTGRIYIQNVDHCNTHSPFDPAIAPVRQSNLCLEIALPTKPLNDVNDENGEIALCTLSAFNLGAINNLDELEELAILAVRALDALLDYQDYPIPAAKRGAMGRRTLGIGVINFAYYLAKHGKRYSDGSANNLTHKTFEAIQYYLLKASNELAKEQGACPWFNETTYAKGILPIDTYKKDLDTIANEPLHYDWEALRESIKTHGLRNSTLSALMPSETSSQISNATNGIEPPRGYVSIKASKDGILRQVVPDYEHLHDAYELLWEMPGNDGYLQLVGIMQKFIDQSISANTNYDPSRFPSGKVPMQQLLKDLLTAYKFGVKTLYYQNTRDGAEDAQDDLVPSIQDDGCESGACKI

The term IC50 denotes the concentration that gives 50% inhibition. Turning to “3′-Azido-3′-deoxythymidine 5′-α-P-borano-β,γ-difluoromethylene-γ-O-palmityltriphosphate [Compound 41]”, the “S. aureus MIC” value in data set [1] (setting [12]) was 5 to 10 µg/mL; in [1] (setting [13]), “(6.5-13) μM”. Moreover, the entries for the “E. coli MIC” value in data set [2] (setting [12]) and in [2] (setting [13]) were 25 to 50 µg/mL and “(33-66) uM”, respectively. Besides, the “Half-Life, Cell Extract Half-Lives of AZT 5'-α-P-borano-β,γ-(difluoromethylene) triphosphate Prodrugs” value in data set [3] is >48 h. The IC50 in data set [4] was found to be 1.41 µM. For the same compound, in [5], the CC50 stood at 12 µM. In the case of `CC(C)(C)C(=O)SCCOP(=O)(CP(=O)(OCCSC(=O)C(C)(C)C)OCC1OC(n2ccc(N)nc2=O)C(F)(F)C1O)OCCSC(=O)C(C)(C)C` (stereo not drawn) [Compound 77, 2′-deoxy-2′,2′-difluorocytidine 5′-tri-O—(S-pivaloyl-2-thioethyl)-α,β-methylenediphosphonate], it took 0.1 µM to reach half-maximal inhibition in [6] (IC50). For the compound `Nc1ccn([C@@H]2O[C@H](CO)[C@@H](O)C2(F)F)c(=O)n1` [Gemcitabine, 2′-deoxy-2′,2′-difluorocytidine, reference compound], the IC50 at 72 h in data set [7] was 0.035 µM. Usually Ki stands for a dissociation constant, usually derived from enzyme kinetics or from competition with a known ligand. As for `Nc1nc2c(ncn2[C@@H]2O[C@H](COP(=O)(O)OP(=O)(O)O)[C@@H](O)[C@H]2O)c(=O)[nH]1` [Guanosine 5′-diphosphate], the Ki in [8] is 15.3 µM.

Regarding `Nc1ccn([C@@H]2O[C@H](COP(=O)(O)OP(=O)(O)O)[C@@H](O)C2=CF)c(=O)n1` [2′-Deoxy-2′-fluoromethylenecytidine 5′-diphosphate], the Ki in data set [8] came out at 19.4 µM. With D4T 5′-α-P-boranotriphosphate, the “Ki values, inhibition of HIV reverse transcriptase (RT)” value in [9] is recorded as “low nM range”. Regarding `BP(=O)(OC[C@@H]1O[C@H](n2cc(C)c(=O)[nH]c2=O)C[C@H]1N=[N+]=[N-])OP(=O)(O)OP(=O)(O)O` (stereo partly drawn) [AZT 5′-α-P-boranotriphosphate], in data set [9], the “Ki values, inhibition of HIV reverse transcriptase (RT)” value is given as “low nM range”. Regarding `Nc1ccn([C@@H]2O[C@H](COP(=O)(O)NP(=O)(O)O)[C@@H](O)/C2=C\F)c(=O)n1` [Compound 3, 2′-Deoxy-(E)-2′-fluoromethylenecytidine 5′-imidodiphosphate], the half-inhibitory concentration (IC50) in [10] (3-minute inactivation, then assay with 1 mM CDP, read-out: IC50, Inhibition of Ribonucleotide Reductase by Nucleotide Mimics) worked out at 8.9 µM. With `Nc1nc2c(ncn2[C@@H]2O[C@H](COP(=O)(O)NP(=O)(O)O)[C@@H](O)[C@H]2O)c(=O)[nH]1` [Guanosine 5′-imidodiphosphate], the Ki in data set [8] came to 5.7 µM.

By half-life is commonly meant the time needed for the level to fall by half in the phase considered. For `Nc1ccn([C@@H]2O[C@H](COP(=O)(O)NP(=O)(O)O)[C@@H](O)C2(F)F)c(=O)n1` [Compound 6, 2′-Deoxy-2′,2′-difluorocytidine 5′-imidodiphosphate], the half-life at 500 μM in data set [11] is 15 h. In [10], this compound showed an IC50 of 12.6 µM.

`Nc1ccn([C@@H]2O[C@H](COP(=O)(O)CCP(=O)(O)O)[C@@H](O)C2(F)F)c(=O)n1` [Compound 81, 2′-Deoxy-2′,2′-difluorocytidine 5′-ethylenediphosphonate]: the Ki in [8] was 15.7 µM.

One may read the MIC as the smallest concentration in the dilution series that meets the test's criterion for growth inhibition. For the compound `Nc1ccn([C@@H]2O[C@H](COP(=O)(O)CP(=O)(O)O)[C@@H](O)C2(F)F)c(=O)n1` [Compound 5, 2′-Deoxy-2′,2′-difluorocytidine-5′-methylenediphosphonate], the MIC is > 200 µg/mL in [1] (setting [12]) and > 475 µM in [1] (setting [13]). In data set [7], the IC50 at 72 h came out at 4.8 µM. For the same compound, in [11], the half-life at 500 μM was > 48 h.
